Earlier results as cited in US20160287599A1, “SUBSTITUTED 1,2,4-TRIAZINE-3,5-DIONES AND THE USE THEREOF AS CHYMASE INHIBITORS” (BAYER PHARMA AKTIENGESELLSCHAFT, priority 2013, published 2016).

System: chymase
Conditions: hamsters, myocardial infarction model

In the case of CCOc1ccccc1CC1C(=O)N(C(=O)NC(c2ccc(C)cc2)c2ccc(C)cc2)C1Oc1ccc(C(=O)O)cc1 (stereo not drawn) [BCEAB], the chymase activity is given as “reduced”, the haemodynamics is given as “improved” and the mortality is given as “reduced”.
